Results published in patent EP4603105A1, “PHARMACEUTICAL COMPOSITION CONTAINING CYCLIC COMPOUND HAVING SELECTIVE KRAS INHIBITORY EFFECT AGAINST HRAS AND NRAS” (CHUGAI SEIYAKU KABUSHIKI KAISHA, priority 2022, dated 2024).
Where two headings read alike, the source gives them in different places.

Key:
[1] = molecular target: GDP-bound KRAS wild-type protein (Homo sapiens, UniProt P01116); test: Binding to KRAS by surface plasmon resonance (SPR), dissociation constant KD
Summary of the method: (§1)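 Measured at 30°C: SPR with GDP-loaded, E. coli-expressed biotin-Avi RAS captured (~100–300 RU), ascending 75 s compound injections, HBS pH 7.4 with GDP, MgCl2, 4% DMSO. KD from 1:1 fit.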

[2] = molecular target: GDP-bound NRAS wild-type protein (Homo sapiens, UniProt P01111); test: Binding to NRAS by surface plasmon resonance (SPR), KD and KD ratio to KRAS
Chain of GDP-bound NRAS wild-type protein (P01111 whole entry): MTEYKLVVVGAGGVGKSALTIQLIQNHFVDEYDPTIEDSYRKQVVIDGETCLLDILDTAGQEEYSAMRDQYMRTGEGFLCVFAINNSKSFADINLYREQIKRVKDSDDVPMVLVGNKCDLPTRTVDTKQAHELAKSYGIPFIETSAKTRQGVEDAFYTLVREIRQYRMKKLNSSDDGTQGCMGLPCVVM
Summary of the method: as §1

HRAS wild-type protein = HRAS wild-type protein (Homo sapiens, UniProt P01112); test: Binding to HRAS by surface plasmon resonance (SPR), KD and KD ratio to KRAS
Chain of HRAS wild-type protein (P01112 whole entry): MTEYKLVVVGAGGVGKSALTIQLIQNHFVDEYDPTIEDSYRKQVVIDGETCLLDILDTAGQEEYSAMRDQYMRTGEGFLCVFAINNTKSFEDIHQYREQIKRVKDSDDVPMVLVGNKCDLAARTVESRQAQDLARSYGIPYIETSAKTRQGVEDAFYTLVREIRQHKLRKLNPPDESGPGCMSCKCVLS
Summary of the method: as §1

[3] = tested on: human lung cancer strain NCI-H441; test: NCI-H441 cell proliferation inhibitory activity (CellTiter-Glo, 4 days); format: cell-based; conditions: read-out: NCl-H441 IC50
Summary of the method: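 Signal came from […] measured per well once the reagent was added. Beforehand, cells were cultured at 37°C and 5% carbon dioxide on a compound series serially diluted in dimethyl sulfoxide.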

[4] = Single Cycle Kinetics, 1:1 binding model
[5] = ratio of KD with respect to GDP-bound NRAS wild-type protein to KD with respect to KRAS
[6] = ratio of KD with respect to HRAS wild-type protein to KD with respect to KRAS
[7] = 50% proliferation inhibitory concentration, four days
[8] = ratio of KD for GDP-bound NRAS wild-type protein to KD for KRAS
[9] = ratio of KD for HRAS wild-type protein to KD for KRAS

Chain of GDP-bound KRAS wild-type protein (P01116 1-188 isoform P01116-2): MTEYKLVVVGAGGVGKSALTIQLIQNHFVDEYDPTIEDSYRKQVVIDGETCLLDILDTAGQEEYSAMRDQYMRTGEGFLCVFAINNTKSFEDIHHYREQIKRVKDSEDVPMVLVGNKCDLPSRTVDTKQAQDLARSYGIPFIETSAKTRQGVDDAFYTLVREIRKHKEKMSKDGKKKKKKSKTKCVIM

Row | Kd [1, 4] [nM] | IC50 [3, 7] [nM] | Kd ([1]; Single Cycle Kinetics) [nM] | IC50 ([3]; NCI-H441 cells, 4 days) [nM] | Kd ([1]; 1:1 binding model) [nM] | SMILES | NRAS /KRAS [2, 5] | HRAS /KRAS (HRAS wild-type protein; [6]) | NRAS /KRAS [2, 8] | HRAS /KRAS (HRAS wild-type protein; [9])
1 | 0.26 | 27.8 |  |  |  | CCO[C@@H]1C[C@H]2C(=O)NC3(CCC3)C(=O)N(C)[C@@H](C3CCCC3)C(=O)N(C)[C@H](C(=O)N3CCOCC3)CC(=O)N(C)[C@@H](Cc3cccs3)C(=O)N[C@@H]([C@@H](C)CC)C(=O)N(C)CC(=O)N(C)[C@H]3CCCCCN(C3=O)[C@@H](Cc3ccc(F)cc3)C(=O)N(C)CC(=O)N[C@@H](CCc3cc(F)c(C(F)(F)F)c(F)c3)C(=O)N2C1 [PP1183] | B (a compound having 3 or more and less than 10 is denoted as B) | B (a compound having 3 or more and less than 10 is denoted as B) |  | 
2 |  |  | 0.46 | 28.3 |  | CCC[C@H]1C(=O)N[C@@H](C23CC(C2)C3)C(=O)N(C)CC(=O)N(C)[C@H]2C/C=C\CCN(C2=O)[C@@H](Cc2ccc(C(F)(F)F)cc2)C(=O)N(C)CC(=O)N[C@@H](CCc2ccc(C(F)(F)F)c(OC)c2)C(=O)N2C[C@H](OCC)C[C@H]2C(=O)N(C)C2(CCC2)C(=O)N(C)[C@@H](C2CCCC2)C(=O)N(C)[C@H](C(=O)N(C)C)CC(=O)N1C [PP3341] |  |  | A (a compound having 10 or more and less than 20 is denoted as A) | A (a compound having 10 or more and less than 20 is denoted as A)
3 |  |  |  | 12.1 | 0.27 | CCC[C@H]1C(=O)N[C@@H]([C@@H](C)CC)C(=O)N(C2CC2)CC(=O)N(C)[C@H]2C/C=C\CCN(C2=O)[C@@H](Cc2ccc(C)cc2)C(=O)N(C)CC(=O)N[C@@H](CCc2cc(F)c(C(F)(F)F)c(F)c2)C(=O)N2C[C@H](OC3CCC3)C[C@H]2C(=O)NC2(CC(C)(C)C2)C(=O)N(C)[C@@H](C2CCCC2)C(=O)N(C)[C@H](C(=O)N(C)C)CC(=O)N1C [PP2614] |  |  | A (a compound having 10 or more and less than 20 is denoted as A) | A (a compound having 10 or more and less than 20 is denoted as A)
4 |  |  | 1.1 | 34.3 |  | CCCC[C@H]1C(=O)N[C@@H]([C@@H](C)CC)C(=O)N(C2CC2)CC(=O)N(C)[C@H]2C/C=C\CCN(C2=O)[C@@H](Cc2ccc(C(F)(F)F)cc2)C(=O)N(C)CC(=O)N[C@@H](CCc2ccc(C(F)(F)F)c(OC)c2)C(=O)N2C[C@H](OCC)C[C@H]2C(=O)OC2(CCC2)C(=O)N(C)[C@@H](C2CCCC2)C(=O)N(C)[C@H](C(=O)N(C)C)CC(=O)N1C [PP3366] |  |  | A (a compound having 10 or more and less than 20 is denoted as A) | A (a compound having 10 or more and less than 20 is denoted as A)
5 |  |  |  | 76.1 | 1 | CCC[C@H]1C(=O)N[C@@H]([C@@H](C)CC)C(=O)N(C2CC2)CC(=O)N(C)[C@H]2C/C=C\CCN(C2=O)[C@@H](Cc2ccc(C)cc2)C(=O)N(C)CC(=O)N[C@@H](CCc2ccc(Cl)c(Cl)c2)C(=O)N2C[C@H](OC(C)C)C[C@H]2C(=O)NC2(CC(C)(C)C2)C(=O)N(C)[C@@H](C2CCCC2)C(=O)N(C)[C@H](C(=O)N(C)C)CC(=O)N1C [PP2571] |  |  | A (a compound having 10 or more and less than 20 is denoted as A) | A (a compound having 10 or more and less than 20 is denoted as A)
6 | 0.22 | 37.6 |  |  |  | CCO[C@@H]1C[C@H]2C(=O)NC3(CCC3)C(=O)N(C)[C@@H](C3CCCC3)C(=O)N(C)[C@H](C(=O)N3CCOCC3)CC(=O)N(C)[C@@H](CC3CC3)C(=O)N[C@@H]([C@@H](C)CC)C(=O)N(C)CC(=O)N(C)[C@H]3C/C=C\CCN(C3=O)[C@@H](Cc3ccc(C)cc3)C(=O)N(C)CC(=O)N[C@@H](CCc3cc(F)c(C(F)(F)F)c(F)c3)C(=O)N2C1 [PP1408] | A (a compound having 10 or more and less than 20 is denoted as A) | A (a compound having 10 or more and less than 20 is denoted as A) |  | 
7 |  |  | 0.064 | 7.4 |  | CCC[C@H]1C(=O)N[C@@H]([C@@H](C)CC)C(=O)N(C)CC(=O)N(C)[C@H]2C/C=C\CCN(C2=O)[C@@H](Cc2ccc(C(F)(F)F)cc2)C(=O)N(C)CC(=O)N[C@@H](CCc2ccc(C(F)(F)F)c(Cl)c2)C(=O)N2CC[C@H](OC)[C@H]2C(=O)N(C)C2(CCC2)C(=O)N(C)[C@@H](C2CCCC2)C(=O)N(C)[C@H](C(=O)N(C)C)CC(=O)N1C [PP3231] |  |  | A (a compound having 10 or more and less than 20 is denoted as A) | A (a compound having 10 or more and less than 20 is denoted as A)
8 |  |  |  | 17.6 | 0.57 | CCC[C@H]1C(=O)N[C@@H]([C@@H](C)CC)C(=O)N(C2CC2)CC(=O)N(C)[C@H]2C/C=C\CCN(C2=O)[C@@H](CC2CCC(F)(F)CC2)C(=O)N(C)CC(=O)N[C@@H](CCc2cc(F)c(C(F)(F)F)c(F)c2)C(=O)N2C[C@H](OCC)C[C@H]2C(=O)NC2(CC(C)(C)C2)C(=O)N(C)[C@@H](C2CCCC2)C(=O)N(C)[C@H](C(=O)N(C)C)CC(=O)N1C [PP2566] |  |  | A (a compound having 10 or more and less than 20 is denoted as A) | B (a compound having 3 or more and less than 10 is denoted as B)
9 |  |  | 0.066 | 5.3 |  | CCC[C@H]1C(=O)N[C@@H]([C@@H](C)CC)C(=O)N(C)CC(=O)N(C)[C@H]2C/C=C\CCN(C2=O)[C@@H](Cc2ccc(C(F)(F)F)cc2)C(=O)N(C)CC(=O)N[C@@H](CCc2ccc(C(F)(F)F)c(OC)c2)C(=O)N2CC[C@H](OC)[C@H]2C(=O)N(C)C2(CCC2)C(=O)N(C)[C@@H](C2CCCC2)C(=O)N(C)[C@H](C(=O)N(C)C)CC(=O)N1C [PP3243] |  |  | A (a compound having 10 or more and less than 20 is denoted as A) | A (a compound having 10 or more and less than 20 is denoted as A)
10 |  |  | 0.21 | 23.2 |  | CCO[C@@H]1C[C@H]2C(=O)NC3(CC(C)(C)C3)C(=O)N(C)[C@@H](C3CCCC3)C(=O)N(C)[C@H](C(=O)N(C)CC)CC(=O)N(C)[C@@H]([C@H](C)OC)C(=O)N[C@@H]([C@@H](C)CC)C(=O)N(C)CC(=O)N(C)[C@H]3C/C=C\CCN(C3=O)[C@@H](Cc3ccc(C)cc3)C(=O)N(C)CC(=O)N[C@@H](CCc3ccc(C(F)(F)F)c(Cl)c3)C(=O)N2C1 [PP3227] |  |  | A (a compound having 10 or more and less than 20 is denoted as A) | A (a compound having 10 or more and less than 20 is denoted as A)
11 |  |  |  | 33.6 | 1.6 | CCO[C@@H]1C[C@H]2C(=O)NC3(CC(C)(C)C3)C(=O)N(C)[C@@H](C(CC)CC)C(=O)N(C)[C@H](C(=O)N(C)C)CC(=O)N(C)[C@@H](C(C)C)C(=O)N[C@@H]([C@@H](C)CC)C(=O)N(C)CC(=O)N(C)[C@H]3C/C=C\CCN(C3=O)[C@@H](CC3CCC(F)(F)CC3)C(=O)N(C)CC(=O)N[C@@H](CCc3cc(F)c(C(F)(F)F)c(F)c3)C(=O)N2C1 [PP2481] |  |  | A (a compound having 10 or more and less than 20 is denoted as A) | A (a compound having 10 or more and less than 20 is denoted as A)
12 |  |  | 1.9 | 67 |  | CCCO[C@@H]1C[C@H]2C(=O)NC3(CC(C)(C)C3)C(=O)N(C)[C@@H](C3CCCC3)C(=O)N(C)[C@H](C(=O)N(C)CC)CC(=O)N[C@@H](COCC)C(=O)N[C@@H]([C@@H](C)CC)C(=O)N(C3CC3)CC(=O)N(C)[C@H]3C/C=C\CCN(C3=O)[C@@H](Cc3ccc(C)cc3)C(=O)N(C)CC(=O)N[C@@H](CCc3cc(F)c(C(F)(F)F)c(F)c3)C(=O)N2C1 [PP3421] |  |  | A (a compound having 10 or more and less than 20 is denoted as A) | A (a compound having 10 or more and less than 20 is denoted as A)
13 | 0.035 | 19.6 |  |  |  | CC[C@H](C)[C@@H]1NC(=O)[C@H](CC)N(C)C(=O)C[C@@H](C(=O)N(C)C)N(C)C(=O)[C@H](C2CCCC2)N(C)C(=O)C2(CCC2)NC(=O)[C@@H]2C[C@@H](OC)CN2C(=O)[C@H](CCc2cc(F)c(C(F)(F)F)c(F)c2)NC(=O)CN(C)C(=O)[C@H](Cc2ccc(C(F)(F)F)cc2)N2CC/C=C\C[C@@H](C2=O)N(C)C(=O)CN(C)C1=O [PP1130] | A (a compound having 10 or more and less than 20 is denoted as A) | B (a compound having 3 or more and less than 10 is denoted as B) |  | 
14 |  |  | 0.078 | 4.5 |  | C#CC[C@H]1C(=O)N[C@@H]([C@@H](C)CC)C(=O)N(C2CC2)CC(=O)N(C)[C@H]2C/C=C\CCN(C2=O)[C@@H](Cc2ccc(C)cc2)C(=O)N(C)CC(=O)N[C@@H](CCc2ccc(C(F)(F)F)c(OC)c2)C(=O)N2C[C@H](OCC)C[C@H]2C(=O)N(C)C2(CCC2)C(=O)N(C)[C@@H](C2CCCC2)C(=O)N(C)[C@H](C(=O)N(C)C)CC(=O)N1C [PP3248] |  |  | A (a compound having 10 or more and less than 20 is denoted as A) | A (a compound having 10 or more and less than 20 is denoted as A)
15 |  |  | 0.11 | 8.1 |  | CCC[C@H]1C(=O)N[C@@H]([C@@H](C)CC)C(=O)N(C)CC(=O)N(C)[C@H]2C/C=C\CCN(C2=O)[C@@H](Cc2ccc(C(F)(F)F)cc2)C(=O)N(C)CC(=O)N[C@@H](CCc2ccc(C(F)(F)F)c(Cl)c2)C(=O)N2CC3(CC3)C[C@H]2C(=O)N(C)C2(CCC2)C(=O)N(C)[C@@H]([C@@H](C)CC)C(=O)N(C)[C@H](C(=O)N(C)C)CC(=O)N1C [PP3299] |  |  | A (a compound having 10 or more and less than 20 is denoted as A) | A (a compound having 10 or more and less than 20 is denoted as A)
